Consider one compound from US20190177279A1, “CARBOXYLIC ACID AROMATIC 1,2-CYCLOPROPYLAMIDES” (Bayer Pharma Aktiengesellschaft, priority 2017, published 2019).

Series [1] addresses T1, native human B1 receptors (Homo sapiens, UniProt P46663).
T1 construct: which express native human B1 receptors after induction with human IL-1; Coriell Institute; host or cells: IMR-90 human foetal lung fibroblasts, induced with human IL-1
T1 sequence (P46663 1-353): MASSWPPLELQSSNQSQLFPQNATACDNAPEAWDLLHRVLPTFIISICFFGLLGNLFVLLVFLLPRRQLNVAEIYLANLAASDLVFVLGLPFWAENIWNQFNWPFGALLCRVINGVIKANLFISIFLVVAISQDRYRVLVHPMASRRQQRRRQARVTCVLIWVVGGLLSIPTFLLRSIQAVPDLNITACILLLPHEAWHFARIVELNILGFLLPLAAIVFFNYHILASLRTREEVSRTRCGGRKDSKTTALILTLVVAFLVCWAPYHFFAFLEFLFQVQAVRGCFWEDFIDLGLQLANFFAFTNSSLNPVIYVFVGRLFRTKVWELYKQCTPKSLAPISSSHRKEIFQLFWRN
In words: Calcium flux assay (FLIPR) with IMR-90 human foetal lung fibroblasts after IL-1 induction. It counts as cell-based. Conditions: IMR-90 fibroblasts induced with human IL-1; 0.1% BSA in assay buffer; agonist Lys-(Des-Arg)-Bradykinin at EC90; read-out: hB1 IC50 IMR90. The protocol:
Calcium Flux Assay (FLIPR) with Human Fibroblasts for Bradykinin B1 Receptor Antagonist (hB1 IMR-90 IC50)
The Calcium flux Assay was carried out utilising IMR-90 human foetal lung fibroblasts (American Type Culture Collection, Rockville, Md.; and Coriell Institute, Camden, N.J.), which express native human B1 receptors after induction with human IL-1[…].
The fibroblasts were cultured in complete growth media comprised of Dulbecco's modified Eagle's medium (DMEM; Sigma) containing 10% foetal bovine serum, 4 mM L-glutamine, and 1% nonessential amino acids. The cells were maintained in a humidified atmosphere with 5% CO2 at 37° C. and were sub-cultured at a ratio of 1:3, every other day.
For the assay, IMR-90 fibroblasts were harvested using TrypLE Express (GIBCO/Invitrogen) and seeded into 384-well plates (Corning Cellbinding Surface, Cat. 3683) at a density of 15000 cells/well. The following day, cells were treated with 0.35 ng/mL human IL-1[…] in 10% FBS/MEM for 3 h to up-regulate B1 receptors. Induced cells were loaded with fluorescent calcium indicator by incubation with 2.5 μM Fluo-4/AM (Invitrogen) at 37° C., 5% CO2 for 2 h in the presence of 2.5 mM probenecid in 1% FBS/MEM. Extracellular dye was removed by washing with assay buffer (2.5 mM probenecid and 0.1% BSA in 20 mM HEPES/HBSS without bicarbonate or phenol red, pH 7.5). Example compounds were assayed at 8 concentrations in triplicate. After addition of example compounds to the cell plate and incubation for 30 min at 28° C., the addition of B1 agonist Lys-(Des-Arg)-Bradykinin (Bachem, Brackley) at a final concentration of EC90 was carried out on the FLIPR instrument while continuously monitoring Ca^2+-dependent fluorescence at 538 nm. A peptide antagonist Lys-(Des-Arg-Leu)-Bradykinin (Bachem, Brackley) at 20 μM was used to determine the full inhibition as control. IC50 values were determined by the same way described for the FLIPR assay with recombinant cells.
On the technique in general: Calcium assays in cells follow changes in intracellular calcium, usually with a dye or a luminescent sensor.

A further series deals with stimulated IMR-90 cells. In words: Cell viability, CellTiter-Glo Luminescent Assay. The series is classed as cell-based, human. The protocol: IMR-90 cells were cultured in Eagle's Minimum Essential Medium (EMEM) containing 2 mM L-glutamine, 1 g/L glucose, 1.5 g/L NaHCO3, 1 mM sodium pyruvate and non-essential amino acids (ATCC, 30-2003™) supplemented with 10% FBS (Biochrom, 50615) and 50 U/mL Penicillin, 50 μg/mL Streptomycin (PAA, P11-010). The assay was performed in EMEM and a cell density of […] IMR-90 cells/96-well. The compound examples were serially diluted in 100% DMSO and evaluated at 8 different concentrations within the range of 3 nM and 10 μM and a final DMSO concentration of 0.4%. The IMR-90 cells were incubated with the respective concentration of the compound for 30 min. […] The amount of IL-6 and IL-8 in the supernatant was determined using the Human ProInflammatory Panel II (4-Plex) (MSD, K15025B) according to manufacturer's instruction. […] Plates were washed three times with phosphate-buffered saline (PBS; 137 mM NaCl, 2.7 mM KCl, 6.5 mM Na2HP04, 1.7 mM KH2P04) containing 0.05% Tween-20 (Bio-Rad, 161-0781) and electrochemiluminescence detected using the MSD Sector Imager 6000 plate reader. The cell viability was measured using the CellTiter-Glo Luminescent Assay (Promega, G7571) following the manufacturers protocol. […] After incubation and shaking for 10 minutes luminescent signal was measured which was proportional to the amount of ATP present. […]
Background: ATP-based viability assays read luminescence as a measure of living cells.

What is called IC50 is the point on the concentration scale where inhibition reaches its midpoint. For the compound `O=C(O)c1cc(NC(=O)C2CC2c2ccc(Cl)cc2)cc(F)c1-c1cnn(C2CCC2)c1` (racemic) [Example 2, 5-({[2-(4-chlorophenyl)cyclopropyl]carbonyl}amino)-2-(1-cyclobutyl-1H-pyrazol-4-yl)-3-fluorobenzoic acid], the half-inhibitory concentration (IC50) in series [1] was determined as 66 nM. Also, the “effect on the cell viability” value in the series on stimulated IMR-90 cells is listed as “no effect”.
